{
  "source": "paper PMC10119423",
  "about": "“From PERK to RIPK1: Design, synthesis and evaluation of novel potent and selective necroptosis inhibitors” (Frontiers in Chemistry, 2023)",
  "key": {"RIPK1 (h)": {"target": "T1, RIPK1 (h) (Homo sapiens, UniProt Q13546)", "T1 construct": "purchased Eurofins Cerep (KinaseProfiler service)", "T1 sequence (Q13546 1-671)": "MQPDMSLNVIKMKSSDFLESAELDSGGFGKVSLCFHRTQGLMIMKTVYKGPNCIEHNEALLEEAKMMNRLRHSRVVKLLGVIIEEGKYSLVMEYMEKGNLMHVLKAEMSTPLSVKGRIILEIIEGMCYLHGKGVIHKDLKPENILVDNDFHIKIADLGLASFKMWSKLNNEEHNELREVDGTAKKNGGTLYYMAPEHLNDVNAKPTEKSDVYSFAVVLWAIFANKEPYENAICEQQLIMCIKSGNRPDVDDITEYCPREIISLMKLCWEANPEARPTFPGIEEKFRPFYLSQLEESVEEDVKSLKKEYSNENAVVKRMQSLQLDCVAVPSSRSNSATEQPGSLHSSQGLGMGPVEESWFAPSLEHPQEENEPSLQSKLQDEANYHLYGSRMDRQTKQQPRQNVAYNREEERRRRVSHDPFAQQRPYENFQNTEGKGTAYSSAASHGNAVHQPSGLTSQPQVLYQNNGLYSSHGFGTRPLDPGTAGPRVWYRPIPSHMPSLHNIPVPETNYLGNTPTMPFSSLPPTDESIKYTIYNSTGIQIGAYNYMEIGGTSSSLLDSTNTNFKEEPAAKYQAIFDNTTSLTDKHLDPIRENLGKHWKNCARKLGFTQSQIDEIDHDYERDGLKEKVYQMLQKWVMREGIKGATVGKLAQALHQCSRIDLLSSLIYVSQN", "assay": "KinaseProfiler assay (Eurofins Cerep), hRIPK1 inhibition", "assay_type": "biochemical", "settings": "9 concentrations (0.0001 μM–1.0 μM), 10 μM ATP", "method": "RIPK1 (h) is incubated with 8 mM MOPS pH 7.0, 0.2 mM EDTA, 0.33 mg/mL myelin basic protein, 10 mM Magnesium acetate and [γ-^33P-ATP] (specific activity and concentration as required). The reaction is initiated by the addition of the Mg/ATP mix. After incubation for 120 min at room temperature, the reaction is stopped by the addition of phosphoric acid to a concentration of 0.5%."}, "HT-29": {"system": "HT-29", "assay": "Necroptosis (hTNF + TAK1i + zVAD.fmk) in HT-29 cells, Sytox Green", "settings": "Homo sapiens, HT-29, read-out: Necroptosis hTNF + TAK1i + zVAD.fmk HT-29 IC50", "experimental": "In brief, the cells were seeded in duplicate at 10,000 cells per well in a 96-well adherent plate and incubated overnight at 37°C with 5% CO2. […] All the compound stock solutions were prepared in DMSO at 200 µM concentration. After stimulating the cells with human TNF at 20 ng/mL the plate was transferred to the incubator. Sytox Green intensity was measured in function of time at 0, 14 and 24 h with an excitation filter of 485 nm, an emission filter of 520 nm. The cell death was calculated by subtracting the background fluorescence from the induced Sytox Green fluorescence and by dividing the obtained result by the maximal fluorescence (minus the background fluorescence) obtained by permeabilization of the cells by using Triton X-100 at a final concentration of 0.1%. Curves were plotted in GraphPad 9 for the IC50 calculation.\nTo induce necroptosis in human colorectal adenocarcinoma cell line (HT-29) together with hTNF and the pan caspases inhibitor zVAD.fmk, TAK1 inhibitor is also needed."}, "PERK": {"target": "T2, PERK (Mus musculus, UniProt Q9Z2B5)", "T2 construct": "Immortalized MEFs were pretreated for 30 min with increasing concentrations of GSK’157 and the indicated compounds and stimulated with tunicamycin; endogenous in cells; host or cells: immortalized mouse embryonic fibroblasts (MEFs, C57Bl6/J)", "T2 sequence (Q9Z2B5 29-1114)": "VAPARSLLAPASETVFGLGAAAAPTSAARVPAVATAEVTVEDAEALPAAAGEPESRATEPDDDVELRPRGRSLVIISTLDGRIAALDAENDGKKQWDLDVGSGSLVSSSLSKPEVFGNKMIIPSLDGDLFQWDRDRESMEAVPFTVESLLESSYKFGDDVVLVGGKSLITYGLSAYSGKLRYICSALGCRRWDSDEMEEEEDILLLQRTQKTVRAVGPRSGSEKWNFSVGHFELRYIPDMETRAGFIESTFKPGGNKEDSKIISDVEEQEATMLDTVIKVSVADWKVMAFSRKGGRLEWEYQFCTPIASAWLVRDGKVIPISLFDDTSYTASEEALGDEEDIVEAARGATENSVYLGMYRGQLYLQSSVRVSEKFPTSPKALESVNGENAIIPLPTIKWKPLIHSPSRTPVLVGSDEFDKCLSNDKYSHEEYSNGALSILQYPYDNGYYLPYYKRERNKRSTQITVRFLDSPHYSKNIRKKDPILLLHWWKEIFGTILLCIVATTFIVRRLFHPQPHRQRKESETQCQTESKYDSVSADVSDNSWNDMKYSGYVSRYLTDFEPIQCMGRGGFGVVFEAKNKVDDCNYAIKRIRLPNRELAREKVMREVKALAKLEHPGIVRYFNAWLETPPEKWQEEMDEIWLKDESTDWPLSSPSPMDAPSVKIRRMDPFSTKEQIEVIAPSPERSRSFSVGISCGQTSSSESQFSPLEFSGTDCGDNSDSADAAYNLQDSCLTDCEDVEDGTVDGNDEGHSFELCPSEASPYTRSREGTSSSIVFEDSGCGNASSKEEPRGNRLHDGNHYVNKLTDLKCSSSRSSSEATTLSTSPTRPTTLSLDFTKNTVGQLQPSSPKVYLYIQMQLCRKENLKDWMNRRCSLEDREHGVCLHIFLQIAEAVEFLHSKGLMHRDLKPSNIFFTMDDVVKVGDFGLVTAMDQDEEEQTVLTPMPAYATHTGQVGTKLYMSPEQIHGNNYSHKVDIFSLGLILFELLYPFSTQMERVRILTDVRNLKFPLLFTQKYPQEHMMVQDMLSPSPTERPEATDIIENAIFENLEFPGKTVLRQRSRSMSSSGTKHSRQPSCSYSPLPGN", "assay": "PERK autophosphorylation by Western blot in tunicamycin-stimulated immortalized MEFs", "assay_type": "cell-based", "method": "MEFs were seeded in 6-well plates at a density of 300.000 cells/well in 2 mL. The next day, the cells were suspended in 1 mL of medium and pre-treated for 30 min with the indicated compounds at 1/5 dilutions series for PERK ranging from 5 to 0.04 µM and 1 μg/mL of Tm followed by 4 h treatment with 20 ng/mL of hTNF. For RIPK1, the cells were pre-treated at 1/10 dilutions series ranging from 10 to 0.01 nM, 50 µM zVAD.fmk and 1 µM TAKi before stimulation with 20 ng/mL of hTNF for 2.5 h. Then, the cells were washed two times with 1 mL of ice-cold PBS before lysis in 0.2 mL of Laemmli buffer 1x (10% (w/v) SDS, 50% glycerol, 0.5% bromophenol blue, 250 mM Tris–HCl pH 6.8) and 250 mM of dithiothreitol (DTT). The cell lysate was then collected and boiled at 95 °C for 10min and stored at −20°C. Proteins expression was later monitored by immunoblotting.\nTheir activities were evaluated by comparing the intensity of the signal to unstimulated MEFs (considered as zero phosphorylation) and Tunicamycin stimulated cells (considered as 100% PERK phosphorylation). […] The MEFs were pre-incubated for 30 min with the different compounds (0.01 nM–1000 nM) and then stimulated with human TNF (20 ng/mL) for 2.5 h. Similar to the PERK assessment, IC50 values for RIPK1 inhibition were estimated as a range of concentrations, and are reported in Table 1."}, "immortalized MEFs": {"system": "immortalized MEFs", "assay": "RIPK1 kinase-dependent necroptosis (hTNF + zVAD.fmk) in MEFs, Sytox Green;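 further: cell death taken as background-corrected Sytox Green fluorescence relative to the maximal signal of cells fully permeabilized with 0.1% Triton X-100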", "assay_type": "cell-based, mouse", "settings": "Mus musculus, 24 h", "experimental": "In brief, the cells were seeded in duplicate at 10,000 cells per well in a 96-well adherent plate and incubated overnight at 37°C with 5% CO2. […] All the compound stock solutions were prepared in DMSO at 200 µM concentration. After stimulating the cells with human TNF at 20 ng/mL the plate was transferred to the incubator. […] The cell death was calculated by subtracting the background fluorescence from the induced Sytox Green fluorescence and by dividing the obtained result by the maximal fluorescence (minus the background fluorescence) obtained by permeabilization of the cells by using Triton X-100 at a final concentration of 0.1%. Curves were plotted in GraphPad 9 for the IC50 calculation.\nConsequently, the compounds were evaluated for their potential protection of RIPK1-mediated necroptosis following human TNF stimulation."}},
  "note": "pIC50: −log10 of the molar value. Read-outs that look alike come from different tables or passages of the source.",
  "data": [
    {"smiles": "Cn1cc(-c2ccc3c(c2F)CCN3C(=O)Cc2ccc(C(F)(F)F)cn2)c2c(N)ncnc21", "note": "[Compound 22]", "values": [
      {"measurement": "pIC50", "setting": "RIPK1 (h)", "result": 6.86},
      {"measurement": "pIC50", "setting": "HT-29", "result": 8.19},
      {"measurement": "PERK inhibition at the tested concentrations (in words)", "setting": "PERK; MEFs, Western blot, 0.04, 0.2, 1 and 5 µM, highest concentration tested 5 µM", "result": "no PERK inhibition"},
      {"measurement": "pIC50", "setting": "PERK; immortalized MEFs, 30 min pretreatment, tunicamycin 1 μg/ml for 4 h, PERK autophosphorylation, read-out: PERK inhibition (IC50 estimated from a Western blot)", "result": "< 5.30"},
      {"measurement": "pIC50", "setting": "immortalized MEFs; immortalized MEFs, zVAD-fmk 50 μM + hTNF 20 ng/ml, Sytox Green at 24 h, Table 1 series, read-out: IC50 necroptosis", "result": 8.54},
      {"measurement": "pIC50", "setting": "immortalized MEFs; MEFs, hTNF + zVAD.fmk (20 ng/mL), Table 2, read-out: Necroptosis hTNF + zVAD.fmk MEFs IC50", "result": 8.97}
    ]}
  ]
}
